Experimental data published in article PMC6222789, “CF3-Substituted Mollugin 2-(4-Morpholinyl)-ethyl ester as a Potential Anti-inflammatory Agent with Improved Aqueous Solubility and Metabolic Stability” (Molecules : A Journal of Synthetic Chemistry and Natural …, 2018).

What was measured:
[1] = tested on: Serum Amyloid A (SAA); assay: Serum SAA level in DSS-induced colitis mouse model (ELISA); format: in vivo; conditions: for serum SAA level (mSS assay): 4% DSS-induced mouse model, compound 10 μM, ELISA; for effect on serum SAA level: murine model of DSS-induced colitis
Procedure: The level of Serum Amyloid A (SAA) was measured using a mouse SAA ELISA kit according to the manufacturer’s instructions (E-90SAA, Immunology Consultants Laboratory, Inc., Portland, OR, USA). All samples were assayed in duplicate. The concentrations of SAA were determined by comparison to serial dilutions of purified SAA calibrator.
Figure 2 Analysis of mouse serum amyloid A (SAA) level. Effect of 6d on the level of SAA in the 4% dextran sulfate sodium (DSS)-induced mouse model. The level of SAA in serum was determined by ELISA. The control mice received water + vehicle (water), and the treated groups received 4% DSS + vehicle or DSS with mesalazine (20 mM), 6d (10 μM), or 15c (10 μM). TEXT PRINTED IN THE PICTURE: vehecle: mSS assay (ng/ml): 252.08 | vehecle: mSS assay (ng/ml): 732.93 (4% DSS) | 2: mSS assay (ng/ml): 788.86 (4% DSS) | 6d: mSS assay (ng/ml): 295.77 (4% DSS) | 15c: mSS assay (ng/ml): 300.95 (4% DSS)

[2] = target: T1, CYP2C19 (Homo sapiens, UniProt P33261); assay: CYP inhibition assay, CYP2C19; format: in vitro ADME; conditions: for CYP Inhibition (% of Control) 2C19: 10 μM, CYP activity in presence of inhibitor as % of control, human liver microsomes
T1 construct: from tissue; host or cells: human liver microsomes
Procedure: (§1) All incubations were performed in duplicate, and the mean values were used for analysis. The assays of phenacetin O-deethylase, tolbutamide 4-hydroxylase, S-mephenytoin 4-hydroxylase, dextromethorphan O-demethylase and midazolam 1′-hydroxylase activities were determined as probe activities for CYP1A2, CYP2C9, CYP2C19, CYP2D6 and CYP3A, respectively, using cocktail incubation and tandem mass spectrometry. Briefly, incubation reaction was performed with 0.25 mg/mL human liver microsomes in a final incubation volume of 100 μL. The incubation medium contained 100 mM phosphate buffer (pH 7.4) with probe substrates. The incubation mixture containing various inhibitors (10 μM) was pre-incubated for 5 min. After pre-incubation, an NADPH regenerating system was added. After incubation at 37 °C for 15 min, the reaction was stopped by placing the incubation tubes on ice and adding 40 μL of ice-cold acetonitrile. The incubation mixtures were then centrifuged at 10,000× g for 5 min at 4 °C. Aliquots of the supernatant were injected onto an LC-MS/MS system. The CYP-mediated activities in the presence of inhibitors were expressed as percentages of the corresponding control values.

[3] = Plasma stability, human plasma; format: in vitro ADME; conditions: 37 °C, 1 μM
Procedure: The plasma stability assay was performed by incubation of human or rat plasma with a test compound in a final concentration of 1 μM for 120 min at 37 °C. The incubation was terminated by addition of 40 μL of ice-cold acetonitrile and vortexing for 5 min. The precipitated proteins were removed by centrifugation at 14,000× g for 5 min at 4 °C. Aliquots of the supernatant were injected onto a Shimadzu Nexera XR LC system. Percentages of the parent compound remaining were calculated by comparing peak areas using the Xcalibur software (version 1.6.1, Waltham, MA, USA).

[4] = Determination of water solubility at 10 mM; format: physicochemical; conditions: aqueous buffer, thermodynamic from solid, sodium phosphate buffer 0.1 M, pH 7.4, room temperature
Procedure: Water solubility (>10 mM) was determined using the following procedure at room temperature. The test compound was added to a vial containing sodium phosphate buffer, 0.1 M, pH 7.4 (1 mL) to make a 10 mM mixture, and the mixture was equilibrated during 10 min of sonication and then visually checked immediately and after 24 h for any undissolved parts or precipitation of the sample. If no precipitation was shown after 24 h, the aqueous solution was filtered (Syringe filter; PTFE; pore size: 0.45 μm; 25 mm DI) and subjected to LC-MS to confirm the reagent.

[5] = tested on: CYP3A4; assay: CYP inhibition assay, CYP3A4; format: in vitro ADME, human; conditions: for CYP Inhibition (% of Control) 3A4: 10 μM, CYP activity in presence of inhibitor as % of control, human liver microsomes
Procedure: as §1

[6] = target: T2, CYP2D6 (Homo sapiens, UniProt P10635); assay: CYP inhibition assay, CYP2D6; format: in vitro ADME; conditions: for CYP Inhibition (% of Control) 2D6: 10 μM, CYP activity in presence of inhibitor as % of control, human liver microsomes
T2 construct: from tissue; host or cells: human liver microsomes
Procedure: as §1

[7] = Metabolic stability, rat liver microsomes; format: in vitro ADME; conditions: 30 min, 1 μM
Procedure: (§2) Pooled human liver microsomes (150 donor) and dog, rat, mouse liver microsomes were obtained from BD Gentest Co. (Woburn, MA, USA). NADPH regeneration system was obtained from Promega. S-Mephenytoin, 4-hydroxymephenytoin, and 1’-hydroxymidazolam were purchased from Ultrafine Chemical Co. (Manchester, UK). All other chemicals and solvents were of the highest grade available. The metabolic stability assay was performed by incubation of human or selected animal liver microsomes (most often dog, rat and mouse), at 37 °C with a test compound at a final concentration of 1 μM, in the presence of 0.5 mg/mL microsomal protein and NADPH regeneration system, in a total volume of 100 μL of 100 mM phosphate buffer, pH 7.4. The incubation was started by the addition of NADPH regeneration system and terminated with 40 μL of ice-cold acetonitrile at 0 and 30 min. Precipitated proteins were removed by centrifugation at 10,000× g for 5 min at 4 °C. Aliquots of the supernatant were injected onto an LC-MS/MS system. Incubations terminated prior to the addition of NADPH regeneration system (time point 0 min) were used as standards, defined as 100%. Percent of the parent compound remaining was calculated by comparing peak area.

[8] = Metabolic stability, mouse liver microsomes; format: in vitro ADME; conditions: 30 min, 1 μM
Procedure: as §2

[9] = target: T3, hERG channel (Homo sapiens, UniProt Q12809); assay: hERG channel binding assay (fluorescence polarization)
T3 construct: purchased Invitrogen PV5365
Procedure: hERG channel binding assay was performed using Invitrogen’s hERG Fluorescence Polarization Assay kit (PV5365) with Synergy Neo plate reader (BioTek, Winooski, VT, USA). The binding assay was carried out according to the kit manufacturer’s instructions.

T2 sequence (P10635 whole entry): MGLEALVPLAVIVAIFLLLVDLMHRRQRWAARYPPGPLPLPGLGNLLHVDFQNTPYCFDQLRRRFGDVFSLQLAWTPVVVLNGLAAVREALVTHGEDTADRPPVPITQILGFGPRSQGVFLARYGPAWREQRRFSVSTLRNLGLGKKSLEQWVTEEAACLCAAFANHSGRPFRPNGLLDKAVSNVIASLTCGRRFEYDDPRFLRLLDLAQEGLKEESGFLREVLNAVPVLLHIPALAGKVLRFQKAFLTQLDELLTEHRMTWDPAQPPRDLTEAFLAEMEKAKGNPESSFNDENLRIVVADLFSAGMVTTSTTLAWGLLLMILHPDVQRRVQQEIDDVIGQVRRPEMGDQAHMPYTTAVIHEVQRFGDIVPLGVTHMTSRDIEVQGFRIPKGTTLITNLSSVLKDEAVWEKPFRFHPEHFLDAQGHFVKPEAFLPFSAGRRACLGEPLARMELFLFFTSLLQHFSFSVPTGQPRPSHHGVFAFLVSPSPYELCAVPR
T1 sequence (P33261 whole entry): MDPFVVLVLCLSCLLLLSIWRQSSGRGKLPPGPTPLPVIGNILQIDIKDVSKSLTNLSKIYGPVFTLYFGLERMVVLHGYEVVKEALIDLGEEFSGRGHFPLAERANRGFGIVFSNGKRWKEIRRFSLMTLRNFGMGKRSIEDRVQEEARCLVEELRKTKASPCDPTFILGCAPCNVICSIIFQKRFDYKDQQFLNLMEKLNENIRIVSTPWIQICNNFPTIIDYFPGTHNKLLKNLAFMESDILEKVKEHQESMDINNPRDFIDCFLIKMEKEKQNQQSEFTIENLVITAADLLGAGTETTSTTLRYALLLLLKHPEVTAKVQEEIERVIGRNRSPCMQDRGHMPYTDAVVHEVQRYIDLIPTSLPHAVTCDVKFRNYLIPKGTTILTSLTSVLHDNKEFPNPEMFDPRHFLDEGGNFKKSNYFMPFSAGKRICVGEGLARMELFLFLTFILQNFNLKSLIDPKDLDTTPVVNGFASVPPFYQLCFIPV
T3 sequence (Q12809 whole entry): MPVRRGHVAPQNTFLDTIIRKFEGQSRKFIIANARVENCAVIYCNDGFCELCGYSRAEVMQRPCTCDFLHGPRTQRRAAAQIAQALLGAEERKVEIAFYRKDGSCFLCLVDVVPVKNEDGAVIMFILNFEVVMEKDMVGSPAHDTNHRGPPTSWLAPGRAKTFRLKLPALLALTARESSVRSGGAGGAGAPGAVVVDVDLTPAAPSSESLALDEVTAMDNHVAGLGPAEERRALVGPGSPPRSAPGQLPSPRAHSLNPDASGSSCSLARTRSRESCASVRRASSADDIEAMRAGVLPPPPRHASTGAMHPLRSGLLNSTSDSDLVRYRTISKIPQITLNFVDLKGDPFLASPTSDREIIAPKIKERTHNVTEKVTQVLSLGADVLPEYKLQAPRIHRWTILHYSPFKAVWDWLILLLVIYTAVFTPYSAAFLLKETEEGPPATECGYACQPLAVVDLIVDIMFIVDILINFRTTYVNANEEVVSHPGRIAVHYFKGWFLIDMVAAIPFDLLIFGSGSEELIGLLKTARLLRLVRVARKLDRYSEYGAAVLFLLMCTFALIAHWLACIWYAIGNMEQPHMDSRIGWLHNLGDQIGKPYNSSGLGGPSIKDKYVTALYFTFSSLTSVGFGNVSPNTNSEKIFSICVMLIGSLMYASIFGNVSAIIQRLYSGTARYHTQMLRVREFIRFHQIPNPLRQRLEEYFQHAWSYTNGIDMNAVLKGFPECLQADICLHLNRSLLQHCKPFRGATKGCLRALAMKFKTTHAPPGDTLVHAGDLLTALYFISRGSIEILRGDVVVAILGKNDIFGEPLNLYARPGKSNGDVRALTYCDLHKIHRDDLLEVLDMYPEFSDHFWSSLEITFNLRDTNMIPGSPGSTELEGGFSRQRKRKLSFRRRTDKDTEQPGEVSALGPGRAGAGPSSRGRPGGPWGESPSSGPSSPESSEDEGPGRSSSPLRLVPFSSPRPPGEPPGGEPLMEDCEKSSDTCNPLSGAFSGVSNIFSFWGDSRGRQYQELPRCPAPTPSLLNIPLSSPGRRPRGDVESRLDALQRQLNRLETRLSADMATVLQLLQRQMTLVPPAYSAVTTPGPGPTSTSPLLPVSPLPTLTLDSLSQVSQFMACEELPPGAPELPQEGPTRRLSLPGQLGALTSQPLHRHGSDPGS

SMILES	serum SAA level (mSS assay) [1]	effect on serum SAA level [1]	CYP Inhibition (% of Control) 2C19 [2]	inhibition at 15 min, 10 μM ([2]; human, liver microsomes, pH 7.4, probe S-mephenytoin (4-hydroxylation), at 10 μM drug concentration, read-out: % inhibition of CYP 2C19)	Plasma Stability (% Remain, 2 h) Human [3]	solubility at 24 h [4]	CYP Inhibition (% of Control) 3A4 [5]	inhibition at 15 min, 10 μM ([5]; human, liver microsomes, pH 7.4, probe midazolam (1′-hydroxylation), at 10 μM drug concentration, read-out: % inhibition of CYP 3A4)	CYP Inhibition (% of Control) 2D6 [6]	inhibition at 15 min, 10 μM ([6]; human, liver microsomes, pH 7.4, probe dextromethorphan (O-demethylation), at 10 μM drug concentration, read-out: % inhibition of CYP 2D6)	Metabolic Stability (% Remain, 30 min) Rat [7]	Metabolic Stability (% Remain, 30 min) Mouse [8]	IC50 [9]
CC1(C)C=Cc2c(C(=O)OCCN3CCOCC3)c(O)c3cc(C(F)(F)F)ccc3c2O1 [15c, 2-Morpholinoethyl 6-hydroxy-2,2-dimethyl-8-(trifluoromethyl)-2H-benzo[h]chromene-5-carboxylate]	300.95 ng/mL	reduces serum SAA level	93 % of Control	< 50%	100 % Remain	> 10 mM	90 % of Control	< 50%	92 % of Control	< 50%	52 % Remain	45 % Remain	
CC1(C)C=Cc2c(C(=O)OCCN3CCOCC3)c(O)c3ccccc3c2O1 [6d, 2-Morpholinoethyl 6-hydroxy-2,2-dimethyl-2H-benzo[h]chromene-5-carboxylate]	295.77 ng/mL	reduces serum SAA level	68 % of Control		97 % Remain		91 % of Control		75 % of Control		20 % Remain	10 % Remain	> 10 µM
